Experimental data reported in patent publication US20140228440A1, “1-AMINO-ALKYLCYCLOHEXANE DERIVATIVES FOR THE TREATMENT OF INFLAMMATORY SKIN DISEASES” (MERZ PHARMA GmbH & CO. KGaA, priority 2008, published 2014).

Experiments:
Assay in all cases: MIC and MBC by the agar dilution method
Assay type in all cases: cell-based
[1] = system: Propionibacterium avidum ATCC 25577; settings: pH 5.5
Experimental: (§1) To assess the anti-microbial potency of Neramexane against acne relevant bacterias the minimal inhibitory concentration (MIC) and minimal bactericidal concentration (MBC) against the following bacterias is established: The MICs of the samples are determined using the agar dilution method based on DIN 58940. Petri dishes of 5.5 cm diameter are poured with 2.5 ml of freshly prepared Mueller-Hinton agar (Merck company, Cat-No 1.05437) or Wilkins-Chalgren-Agar (Oxoid company, Cat-No CM643), maintained in liquid form at 50° C., to which the sample dilutions at various concentrations have been added at 50.0 vol.-%. To prepare the starting sample dilutions, a 12.5%, 3.12% suspension of the respective sample solution is prepared with Aqua purificata. From these stock-solutions, further dilutions are prepared with Aqua purificata. All test compounds are adjusted to pH 5.5. For test product no. 1, separate dilutions adjusted to pH 6.0 and pH 7.4 are also prepared. For inoculation, 1 μl of the respective germ suspension is placed on the centre of each agar plate. After drying, inoculated plates are incubated at 36.0±2.0° C. The basis for the length of incubation period is the respective growth control cultivated in parallel. The test microbe suspension is prepared by inoculating a few individual colonies of the respective bacteria into sterile saline solution until a turbidity corresponding to the McFarland standard 1.0 (approximately 10^8 cfu/ml) is reached. After that, the test microbe suspensions are further diluted 1:10 with saline solution and the microbial counts (see Table 21) are determined by the surface spread method using a spiral plater. The agar plates are incubated under the conditions given in Table 22 and subsequently evaluated. The MIC-values as given represent the lowest concentration of the active substance at which there is no macroscopically visible growth. Minimal, barely visible growth or few small individual colonies are evaluated as inhibition. [table] All negative tests of the determination of the minimal bactericial concentration are the basis of verification of remaining germs, the inoculated agar segments are cut and put in Mueller-Hinton-Bouillon (germ 1) or Wilkins-Chalgren-Bouillon (germs 2-4). After an adequate incubation period at 36.0±2.0° C. (as judged from a control without test compound), the tests are checked manually on microbial growth (=turbidity) and the minimal bactericidal concentration is determined. MBC indicates the concentration without marked turbidity. Grown germs are checked for identity to rule out unspecific contaminations. The following results are summarized and tabulated: • a) Results of the Minimal Inhibitory Concentration (MIC)* • b) Results of the Minimal Bactericidal Concentration (MBC) *The MIC is the concentration without macroscopical growth. Scarcely apparent, minimum growth or few single colonies are not considered. The controls must have a respectively good developed growth. There must be no growth on the agar plates for the sterile control. The growth of bacteria is indicated for the duplicate plates by a +(i.e., growth) or a −(i.e., no growth), +− indicates weak growth on both plates or growth on one plate and no growth on the other plate. All bacteria show appropriate growth on the respective control plate not containing any test compound. No influence of the used diluent (Aqua purifacata) was observed. No contamination is observed on the control-plates.

[2] = system: Propionibacterium granulosum ATCC 11829
Experimental: as §1

[3] = system: Staphylococcus epidermidis ATCC 12228; settings: pH 5.5
Experimental: as §1

[4] = final concentration 0.08 %, pH 5.5
[5] = final concentration 0.08 %, pH 6.0
[6] = final concentration 0.08 %, pH 7.4
[7] = final concentration 0.16 %, pH 5.5
[8] = final concentration 0.16 %, pH 6.0
[9] = final concentration 0.16 %, pH 7.4
[10] = final concentration 0.31 %, pH 5.5
[11] = final concentration 0.31 %, pH 6.0
[12] = final concentration 0.31 %, pH 7.4
[13] = final concentration 0.63 %, pH 5.5
[14] = final concentration 0.63 %, pH 6.0
[15] = final concentration 0.63 %, pH 7.4
[16] = final concentration 1.56 %, pH 5.5
[17] = final concentration 1.56 %, pH 6.0
[18] = final concentration 1.56 %, pH 7.4
[19] = final concentration 2.50 %, pH 5.5
[20] = final concentration 2.50 %, pH 6.0
[21] = final concentration 2.50 %, pH 7.4
[22] = final concentration 3.13 %, pH 5.5
[23] = final concentration 3.13 %, pH 6.0
[24] = final concentration 3.13 %, pH 7.4
[25] = final concentration 6.25 %, pH 5.5
[26] = final concentration 6.25 %, pH 6.0
[27] = final concentration 6.25 %, pH 7.4

Compound: CC1(C)CC(C)(C)CC(C)(N)C1.CS(=O)(=O)O [Neramexane mesylate]
- growth of bacteria on duplicate plates (MIC determination) ([1]; final concentration 0.01 %): + +
- growth of bacteria on duplicate plates (MIC determination) ([1]; final concentration 0.04 %): + +
- growth of bacteria (MBC determination) ([1]; final concentration 0.08 %): + +
- growth of bacteria on duplicate plates (MIC determination) ([1]; final concentration 0.08 %): − −
- growth of bacteria (MBC determination) ([1]; final concentration 0.16 %): + +
- growth of bacteria on duplicate plates (MIC determination) ([1]; final concentration 0.16 %): − −
- growth of bacteria (MBC determination) ([1]; final concentration 0.31 %): + +
- growth of bacteria on duplicate plates (MIC determination) ([1]; final concentration 0.31 %): − −
- growth of bacteria (MBC determination) ([1]; final concentration 0.63 %): − −
- growth of bacteria on duplicate plates (MIC determination) ([1]; final concentration 0.63 %): − −
- growth of bacteria (MBC determination) ([1]; final concentration 1.56 %): − −
- growth of bacteria on duplicate plates (MIC determination) ([1]; final concentration 1.56 %): − −
- growth of bacteria (MBC determination) ([1]; final concentration 2.50 %): − −
- growth of bacteria on duplicate plates (MIC determination) ([1]; final concentration 2.50 %): − −
- growth of bacteria (MBC determination) ([1]; final concentration 3.13 %): − −
- growth of bacteria on duplicate plates (MIC determination) ([1]; final concentration 3.13 %): − −
- growth of bacteria (MBC determination) ([1]; final concentration 6.25 %): − −
- growth of bacteria on duplicate plates (MIC determination) ([1]; final concentration 6.25 %): − −
- MBC [1]: 0.63%
- MIC [1]: 0.08%
- growth of bacteria on duplicate plates (MIC determination) ([2]; final concentration 0.01 %, pH 5.5): + +
- growth of bacteria on duplicate plates (MIC determination) ([2]; final concentration 0.01 %, pH 6.0): + +
- growth of bacteria on duplicate plates (MIC determination) ([2]; final concentration 0.01 %, pH 7.4): + +
- growth of bacteria on duplicate plates (MIC determination) ([2]; final concentration 0.04 %, pH 5.5): + +
- growth of bacteria on duplicate plates (MIC determination) ([2]; final concentration 0.04 %, pH 6.0): + −
- growth of bacteria on duplicate plates (MIC determination) ([2]; final concentration 0.04 %, pH 7.4): + −
- growth of bacteria (MBC determination) [2, 4]: + +
- growth of bacteria on duplicate plates (MIC determination) [2, 4]: − −
- growth of bacteria (MBC determination) [2, 5]: + +
- growth of bacteria on duplicate plates (MIC determination) [2, 5]: − −
- growth of bacteria (MBC determination) [2, 6]: + +
- growth of bacteria on duplicate plates (MIC determination) [2, 6]: − −
- growth of bacteria (MBC determination) [2, 7]: + +
- growth of bacteria on duplicate plates (MIC determination) [2, 7]: − −
- growth of bacteria (MBC determination) [2, 8]: + +
- growth of bacteria on duplicate plates (MIC determination) [2, 8]: − −
- growth of bacteria (MBC determination) [2, 9]: + +
- growth of bacteria on duplicate plates (MIC determination) [2, 9]: − −
- growth of bacteria (MBC determination) [2, 10]: + +
- growth of bacteria on duplicate plates (MIC determination) [2, 10]: − −
- growth of bacteria (MBC determination) [2, 11]: − −
- growth of bacteria on duplicate plates (MIC determination) [2, 11]: − −
- growth of bacteria (MBC determination) [2, 12]: + +
- growth of bacteria on duplicate plates (MIC determination) [2, 12]: − −
- growth of bacteria (MBC determination) [2, 13]: − −
- growth of bacteria on duplicate plates (MIC determination) [2, 13]: − −
- growth of bacteria (MBC determination) [2, 14]: − −
- growth of bacteria on duplicate plates (MIC determination) [2, 14]: − −
- growth of bacteria (MBC determination) [2, 15]: + +
- growth of bacteria on duplicate plates (MIC determination) [2, 15]: − −
- growth of bacteria (MBC determination) [2, 16]: − −
- growth of bacteria on duplicate plates (MIC determination) [2, 16]: − −
- growth of bacteria (MBC determination) [2, 17]: − −
- growth of bacteria on duplicate plates (MIC determination) [2, 17]: − −
- growth of bacteria (MBC determination) [2, 18]: − −
- growth of bacteria on duplicate plates (MIC determination) [2, 18]: − −
- growth of bacteria (MBC determination) [2, 19]: − −
- growth of bacteria on duplicate plates (MIC determination) [2, 19]: − −
- growth of bacteria (MBC determination) [2, 20]: − −
- growth of bacteria on duplicate plates (MIC determination) [2, 20]: − −
- growth of bacteria (MBC determination) [2, 21]: − −
- growth of bacteria on duplicate plates (MIC determination) [2, 21]: − −
- growth of bacteria (MBC determination) [2, 22]: − −
- growth of bacteria on duplicate plates (MIC determination) [2, 22]: − −
- growth of bacteria (MBC determination) [2, 23]: − −
- growth of bacteria on duplicate plates (MIC determination) [2, 23]: − −
- growth of bacteria (MBC determination) [2, 24]: − −
- growth of bacteria on duplicate plates (MIC determination) [2, 24]: − −
- growth of bacteria (MBC determination) [2, 25]: − −
- growth of bacteria on duplicate plates (MIC determination) [2, 25]: − −
- growth of bacteria (MBC determination) [2, 26]: − −
- growth of bacteria on duplicate plates (MIC determination) [2, 26]: − −
- growth of bacteria (MBC determination) [2, 27]: − −
- growth of bacteria on duplicate plates (MIC determination) [2, 27]: − −
- MBC ([2]; pH 5.5): 0.63%
- MIC ([2]; pH 5.5): 0.08%
- MBC ([2]; pH 6.0): 0.31%
- MIC ([2]; pH 6.0): 0.08%
- MBC ([2]; pH 7.4): 1.56%
- MIC ([2]; pH 7.4): 0.08%
- growth of bacteria on duplicate plates (MIC determination) ([3]; final concentration 0.01 %): + +
- growth of bacteria on duplicate plates (MIC determination) ([3]; final concentration 0.04 %): + +
- growth of bacteria on duplicate plates (MIC determination) ([3]; final concentration 0.08 %): + +
- growth of bacteria (MBC determination) ([3]; final concentration 0.16 %): + +
- growth of bacteria on duplicate plates (MIC determination) ([3]; final concentration 0.16 %): − −
- growth of bacteria (MBC determination) ([3]; final concentration 0.31 %): + +
- growth of bacteria on duplicate plates (MIC determination) ([3]; final concentration 0.31 %): − −
- growth of bacteria (MBC determination) ([3]; final concentration 0.63 %): + +
- growth of bacteria on duplicate plates (MIC determination) ([3]; final concentration 0.63 %): − −
- growth of bacteria (MBC determination) ([3]; final concentration 1.56 %): − −
- growth of bacteria on duplicate plates (MIC determination) ([3]; final concentration 1.56 %): − −
- growth of bacteria (MBC determination) ([3]; final concentration 2.50 %): − −
- growth of bacteria on duplicate plates (MIC determination) ([3]; final concentration 2.50 %): − −
- growth of bacteria (MBC determination) ([3]; final concentration 3.13 %): − −
- growth of bacteria on duplicate plates (MIC determination) ([3]; final concentration 3.13 %): − −
- growth of bacteria (MBC determination) ([3]; final concentration 6.25 %): − −
- growth of bacteria on duplicate plates (MIC determination) ([3]; final concentration 6.25 %): − −
- MBC [3]: 1.56%
- MIC [3]: 0.16%
